Results from patent US20130274233A1, “MODULATORS OF HEDGEHOG SIGNALING PATHWAY” (priority 2012, published 2013).
Structures can show the parent of a compound that is named as a salt.

Tests used:
Assay type in all cases: cell-based
Smo::EGFP = target: T1, Smo::EGFP (Homo sapiens, UniProt Q99835); assay: High content assay of Shh-induced Smo::EGFP accumulation in the primary cilium (Smo::EGFP/Ivs::tagRFPT NIH/3T3 cells); settings: for accumulation of Smo on the PC: in either the presence or absence of Shh; for inhibition of Shh-induced Smo::EGFP accumulation in the PC: in the presence of Shh; for Smo antagonist activity in SAR assays: Smo::EGFP/Ivs::tagRFPT cells primed with compounds for 3 hours before adding Shh
T1 construct: expressed in transfected cells
Text: (§1) NIH/3T3 cells were maintained in DMEM containing 10% (v/v) calf serum, penicillin, streptomycin, and L-glutamine. HEK293, L, cos 7, and suFU−/− mouse embryonic fibroblast cells were maintained in DMEM containing 10% (v/v) fetal bovine serum, penicillin, streptomycin, and L-glutamine. Smo::EGFP, SmoM2::GFP, and Ivs::tagRFPT were cloned into pBabe to generate retroviral particles for infection. Smo::EGFP/Ivs::tagRFPT and SmoM2::GFP/Ivs::tagRFPT stable cell lines were generated through viral infection of NIH/3T3^12. A ShhLightII Gli reporter cell line was obtained from the American Type Culture Collection (ATCC) and used in luciferase reporter assays to measure Hh pathway activity. The cell line contains a stably integrated Gli-responsive Firefly luciferase reporter and a constitutive Renilla luciferase expression construct^33. Subclones expressing Smo or SmoM2 in ShhLightII cells were used for chemical epistasis analyses.
(§2) Cells were cultured and treated in 384-well imaging plate precoated with poly-D-Lysine (Greiner Bio-one), fixed with 4% paraformaldehyde (Electron Microscopy Sciences), and stained with Hoechst (Invitrogen). Images were collected using Opera High Content Screening System (Perkin Elmer). Activityl)ase (IDBS Inc, Emeryvill, Calif.) and Pipeline Pilot (Accelrys, Inc. San Diego, Calif.) were used for high content screening data management and analysis. Acapella 2.0 software (Evotec Technologies/PerkinElmer) was used to perform multi-parametrical high content image quantification. All the images for comparison were scanned with identical microscopic settings and analyzed with the same input parameters.
(§3) Acapella 2.0 software (Evotec Technologies/PerkinElmer) was used to perform multi-parametric high content image quantification. Our image analysis script used Ivs::tagREPT to first determine the location of the PC and then Smo::EGFP to quantify the level of Smo present in the cilium.
(§4) The inventors used the spot-finding algorithm in the RFP channel to find Ivs-rich spots. Each non-overlapping spot was based on a maximum 8 pixel-radius (when using a 40× objective) around a central intensity peak of 5 pixels. A distance of at least 10 pixels was required between adjacent spot centers. Spot peaks had to exceed thresholds of relative intensity compared to the remaining body of the spot as well as to the entire image. The average, maximum and total RFP intensity of each spot were measured. The spots with sufficiently high absolute maxima to pass the selected threshold were classified as positive spots. To form candidate cilia, the inventors selected the brightest 15% of the pixels in each positive spot and merged those pixels into objects so that the brightest parts of adjacent spots could form single, larger cilia-shaped objects. To qualify the candidate cilia as true Ivs-positive cilia, the width of the objects created from merging the brightest pixels in each spot had to be at least 2 pixels and the length to half-width ratio had to exceed 3. (i.e. a 3-pixel long by 2-pixel wide cilium was the minimum accepted cilium size and the length had to be at least 1.5 fold of the width). The mean GFP intensity within these Ivs-positive cilia was used to estimate the ciliary level of Smo protein. The inventors subtracted the background of the mean GFP intensity in the 3-pixel wide area around each candidate cilium to avoid some false positives. Those Ivs-positive cilia that exceed the final mean GFP intensity threshold set for each experiment were deemed Smo-positive cilia.
Hoechst staining was used to determine the total number of nuclei per well.
Measurements of the geometry of the cilia as well as the total fluorescent intensities of each cilium in the Smo- and Ivs-channels were used to determine if any of the compounds were having unusual effects on cilia size, intensity or frequency of observation or combinations of all three characteristics.

SmoM2::GFP = target: T2, SmoM2::GFP (Homo sapiens, UniProt Q99835, W535L); assay: Ciliary localization of SmoM2::GFP (3T3/SmoM2::GFP Overexpression/Ivs::tagRFPT); settings: SmoM2::EGFP overexpressing cells
T2 construct: expressed in transfected cells
Text: as §1, §2, §3

primary cilium (PC) = assay: Primary cilium markers in the high content assay (Ivs::tagRFPT, Arl13b, acetylated tubulin); settings: Ivs::tagRFPT and other PC markers
Text: as §3
as §4, with “cilia. […]” for “cilia.”
Cells were cultured and treated in 384-well imaging plate precoated with poly-D-Lysine (Greiner Bio-one), fixed with 4% paraformaldehyde (Electron Microscopy Sciences), and stained with Hoechst (Invitrogen). […] Acapella 2.0 software (Evotec Technologies/PerkinElmer) was used to perform multi-parametric image quantification. All the comparative images were scanned with identical microscopic setting and analyzed with the same input parameters.

Hh pathway activity = assay: Gli-luciferase reporter assay, Shh-induced Hh pathway activity (ShhLightII cells); settings: for inhibition of Shh-induced Hh pathway activity, Gli-luciferase reporter: Shh stimulation
Text: as §1
(§5) Hh activity assays were performed using ShhLightll cells, Smo/Lightll cells, SmoM2/Lightll cells, and suFU−/− mouse embryonic fibroblasts. In the suFU−/− cells, Hh activity was measured after co-transfection with Gli driven firefly luciferase and TK-renilla luciferase reporters^41. Wnt activity was measured in 293 cells co-transfected with Top-flash and TK-renilla luciferase reporters^42. Cells were cultured and treated in 96 well assay plates (Corning) and incubated with Duo-Glo luciferase substrates (Promega) to measure firefly and renilla luciferase activity sequentially using a Top Count NX Microplate Scintillation and Luminescence Counter (Perkin Elmer). The renilla luciferase signal was used to normalize the firefly reporter activity.
(§6) ShhLightII cells and SmoM2/LightII cells were cultured and treated in 96 well assay plates (Corning) and incubated with Duo-Glo luciferase substrates (Promega) to sequentially measure firefly and renilla luciferase activity. Smo, or GFP, expression plasmids were co-transfected into 3T3 cells together with a Gli-responsive firefly reporter and a TK-renilla luciferase reporter contruct to monitor effects of Smo overexpression. Co-transfection of the two reporter constructs was conducted in assays measuring Hh pathway activity in suFU−/− cells. Wnt activity was measured following co-transfection of a Top-flash and renilla luciferase reporter. In both Hh and Wnt activity assays, renilla luciferase reporter activity, or mass of protein, was used to normalize expression values. Luciferase signal was read by TopCount NX Microplate Scintillation and Luminescence Counter (Perkin Elmer). Quantitative PCR probes for Ptch1, Gli1, and β-actin were purchased from Applied Biosystems. Reactions and measurements were performed using on an Applied Biosystems 7900HT at Harvard FAS Center of System Biology. β-actin was used to normalize Ptch1 and Gil1 values.

SmoM2 = assay: Gli-luciferase reporter induced by SmoM2::GFP overexpression (SmoM2/LightII cells); settings: SmoM2 overexpression
Text: as §1, §5, §6

Wnt signaling activity = assay: Wnt Top-flash reporter assay; settings: with or without Wnt3a
Description: as §5, §6

T1 sequence (Q99835 28-787): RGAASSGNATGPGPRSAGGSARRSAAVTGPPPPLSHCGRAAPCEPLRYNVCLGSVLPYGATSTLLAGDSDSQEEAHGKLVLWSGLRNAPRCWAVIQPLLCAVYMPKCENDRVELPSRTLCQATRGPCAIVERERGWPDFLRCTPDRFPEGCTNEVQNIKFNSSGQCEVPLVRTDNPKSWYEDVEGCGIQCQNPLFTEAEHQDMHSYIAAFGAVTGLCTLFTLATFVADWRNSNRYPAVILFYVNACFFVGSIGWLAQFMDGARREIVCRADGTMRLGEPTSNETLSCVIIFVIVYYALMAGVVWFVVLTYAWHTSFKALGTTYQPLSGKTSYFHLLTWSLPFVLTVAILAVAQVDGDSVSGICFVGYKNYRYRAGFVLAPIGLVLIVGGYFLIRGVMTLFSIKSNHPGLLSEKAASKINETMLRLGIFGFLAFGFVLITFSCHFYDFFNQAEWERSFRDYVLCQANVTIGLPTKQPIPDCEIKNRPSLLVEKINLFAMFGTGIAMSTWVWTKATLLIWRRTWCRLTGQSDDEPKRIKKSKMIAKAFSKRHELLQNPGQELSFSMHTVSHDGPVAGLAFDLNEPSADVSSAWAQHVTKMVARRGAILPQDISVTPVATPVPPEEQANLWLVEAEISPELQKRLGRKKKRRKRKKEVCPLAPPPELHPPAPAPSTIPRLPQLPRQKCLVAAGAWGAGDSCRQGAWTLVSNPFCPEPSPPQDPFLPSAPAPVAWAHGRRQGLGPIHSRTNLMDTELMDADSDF
T2 sequence (Q99835 28-787 W535L): as the sequence (Q99835 28-787) above, with W508L counted along it

CC/C(=C(/CC)c1ccc(O)cc1)c1ccc(O)cc1 [diethylstilbestrol] was tested, and the “accumulation of Smo on the PC” value (Smo::EGFP) was “did not alter the accumulation of Smo on the PC”.
For CC(C)C(=O)OCC(=O)[C@@]12O[C@H](C3CCCCC3)O[C@@H]1C[C@H]1[C@@H]3CCC4=CC(=O)C=C[C@]4(C)[C@H]3[C@@H](O)C[C@@]12C [Cic, Ciclesonide], the “effect on SmoM2 ciliary localization” value (SmoM2::GFP) was “attenuated”, the “inhibition of Shh-induced Smo::EGFP accumulation in the PC” value (“inhibition … in the PC” for short) (Smo::EGFP) was “inhibition of Smo accumulation in the PC” and the “effect on primary cilium markers / ciliary structure” value (primary cilium (PC)) was “did not disrupt”. The “inhibition of Shh-induced Hh pathway activity, Gli-luciferase reporter” value (shortened to “inhibition … Gli-luciferase reporter”) (Hh pathway activity) was “inhibited” and the “effect on SmoM2 driven Hh pathway activity, transcriptional reporter” value (SmoM2) was “attenuated”.
For CC(=O)N1CCN(c2ccc(OCC3COC(Cn4ccnc4)(c4ccc(Cl)cc4Cl)O3)cc2)CC1 (centres unmarked) [KCZ, Ketoconazole], the “inhibition … in the PC” value (Smo::EGFP) was “inhibited” and the “inhibition … Gli-luciferase reporter” value (Hh pathway activity) was “inhibited”.
With Cl.Cl.Clc1ccccc1CNCC1CCC(CNCc2ccccc2Cl)CC1 (centres unmarked) [AY9944] the “inhibition … in the PC” value (Smo::EGFP) was “inhibited” and the “inhibition … Gli-luciferase reporter” value (Hh pathway activity) was “inhibited”.
In the case of CC(C)c1ccc(/C=N/NC(=O)c2ccc(O)cc2)cc1 [GSK4716], the IC50 (Smo::EGFP; 3T3/Smo::GFP/Ivs::tagRFPT cells, stimulus Shh, read-out: IC50, inhibition of Shh-induced Smo::GFP ciliary accumulaton) is reported as 2 µM and the IC50 (Hh pathway activity; Mus musculus, Shh Light II, 3T3/Shh-LightII cells, stimulus Shh, read-out: IC50, inhibition of Shh-induced expression of Gli-luciferase reporter) is reported as 10 µM.
O=C(N/N=C/c1ccccc1)c1ccc(O)cc1 [RL-0070462] was tested, and the “Smo antagonist activity in SAR assays” value (Smo::EGFP) was “dramatically impaired the activity”.
For CCN(CC)c1ccc(/C=N/NC(=O)c2ccccc2)cc1 [RL-0070463], the “Smo antagonist activity in SAR assays” value (Smo::EGFP) was “moderately decreased the activity”.
For CC[C@H](c1ccc(O)cc1)[C@@H](CC)c1ccc(O)cc1 [hexestrol], the “accumulation of Smo on the PC” value (Smo::EGFP) was “did not alter the accumulation of Smo on the PC”.
For CC/C(=C(\c1ccccc1)c1ccc(OCCN(C)C)cc1)c1ccccc1 [tamoxifen citrate], the “accumulation of Smo on the PC” value (Smo::EGFP) was “did not alter the accumulation of Smo on the PC”.
With CCN(CC)c1ccc(/C=N/NC(=O)c2ccc(OC)cc2)cc1 [RL-0070464] the “Smo antagonist activity in SAR assays” value (Smo::EGFP) was “can be tolerated”.
With CCCC1O[C@@H]2C[C@H]3[C@@H]4CCC5=CC(=O)C=C[C@]5(C)[C@H]4[C@@H](O)C[C@]3(C)[C@]2(C(=O)CO)O1 (some centres unmarked) [Bud, Budesonide] the “effect on Wnt pathway reporter activity” value (Wnt signaling activity) was “no effect”.
In the case of 4-hydroxytamoxifen, the “accumulation of Smo on the PC” value (Smo::EGFP) is reported as “did not alter the accumulation of Smo on the PC”.
In the case of CC[C@]1(O)C[C@@H]2CN(CCc3c([nH]c4ccccc34)[C@@](C(=O)OC)(c3cc4c(cc3OC)N(C)[C@H]3[C@@](O)(C(=O)OC)[C@H](OC(C)=O)[C@]5(CC)C=CCN6CC[C@]43[C@@H]65)C2)C1 [vinblastine], the “effect on primary cilium markers / ciliary structure” value (primary cilium (PC)) is reported as “decrease in the Ivs::tagRFPT ciliary signal” and the “inhibition … Gli-luciferase reporter” value (Hh pathway activity) is reported as “appear as Hh pathway antagonists”.
In the case of N#CC(C(=O)c1ccc(Cl)cc1Cl)c1nc2ccccc2c(=O)[nH]1 (centres unmarked) [HPI-4], the “effect on primary cilium markers / ciliary structure” value (primary cilium (PC)) is reported as “decrease in the Ivs::tagRFPT ciliary signal” and the “inhibition … Gli-luciferase reporter” value (Hh pathway activity) is reported as “appear as Hh pathway antagonists”.
